Measured values published in patent US11458120B2, “Aptamer-drug conjugate and use thereof” (priority 2016, dated 2022).
Non-standard residues stand in square brackets, D forms with d. Residues, ends and D or L forms follow the SMILES beside them. *: point of attachment. Dolaproine = CO[C@@H]([C@@H]1CCCN1)[C@@H](C)C(=O)O; Dil = CC[C@H](C)[C@H](NC)[C@@H](CC(=O)O)OC; X1 = C[C@@H](N*)[C@@H](O)c1ccccc1; NMeV = CN[C@H](C(=O)O)C(C)C

How the values were obtained:
[1] = tested on: A549 lung cancer cell line-injected mice; experiment: In vivo therapeutic efficacy on A549 lung cancer cell line-injected mice (FDG PET, tumor size); set-up: species or system nude mouse; settings: i.v. 4 times by 5 day intervals, conjugate 7.5 mg/kg (0.5 mg/kg of MMAE) or MMAE 0.5 mg/kg, 30 days after start of treatment
Procedure: To A549 lung cancer cell line-injected mice, MMAE-(PAB-Cit-Val-MC-S-C6)-T3-AS1411 and MMAE, respectively, were administered by IV injection for 30 days, followed by identifying tumor sizes through PET images. A549 lung cancer cells in a number of 6.1×10^6 cells/ml were injected subcutaneously in the right thigh of each nude mouse. The tumor size was measured in 3 to 4 weeks after the injection and, when a diameter of the tumor reached 0.8 cm, microPET images were captured before treatment. For PET images, F-18 FDG 0.2 mCi was i.p. injected and then the images were captured (Siemens Inveon). After detection of FDG intake in the tumor from the images, MMAE-(PAB-Cit-Val-MC-S-C6)-T3-AS1411 was i.v. injected in an experimental group of 5 mice 4 times by 5 day intervals (7.5 mg/kg, 0.5 mg/kg of MMAE). […]
To A549 lung cancer cell-injected mice, MMAE was administered by IV injection for 30 days, followed by observation of PET images. […] The tumor size was measured in 3 to 4 weeks after the injection and, when a diameter of the tumor reached 0.8 cm, microPET images were captured before treatment. […]
As compared to administration of MMAE alone, it was determined that MMAE-(PAB-Cit-Val-MC-S-C6)-T3-AS1411 inhibits 80% more cancer. After the start of treatment, sizes of tumors were measured in both of horizontal and vertical axes by 5 day intervals. […]

[2] = tested on: Mv4-11 AML cell line-injected mice; experiment: In vivo therapeutic efficacy on Mv4-11 AML cell line-injected mice (FDG PET); set-up: species or system nude mouse; settings: Mv4-11 AML tumor, i.v. 4 times by 5 day intervals, conjugate 7.5 mg/kg or MMAE 0.5 mg/kg, 30 days after start of treatment
Procedure: To Mv4-11 AML cell line-injected mice, citravin-(GLFG-MC-S-C6)-T3-AS1411 and MMAE, respectively, were administered by IV injection for 30 days, followed by identifying tumor sizes through PET images. Mv4-11 AML cells in a number of 6.1×10^6 cells/ml were injected subcutaneously in the right thigh of each nude mouse. The tumor size was measured in 3 to 4 weeks after the injection and, when a diameter of the tumor reached 0.8 cm, microPET images were captured before treatment. For PET images, F-18 FDG 0.2 mCi was i.p. injected and then the images were captured (Siemens Inveon). After detection of FDG intake in the tumor from the images, citravin-(GLFG-MC-S-C6)-T3-AS1411 was i.v. injected in an experimental group of 5 mice 4 times by 5 day intervals (7.5 mg/kg, 0.5 mg/kg of MMAE). After 30 days from the start of treatment, microPET images were captured by the same method as used before treatment (FIG. 13 and FIG. 14).
To Mv4-11 AML cell line-injected mice, MMAE was administered by IV injection for 30 days, followed by observation of PET images. Mv4-11 AML cells in the number of 6.1×10^6 cells/ml were injected subcutaneously in the right thigh of each nude mouse. The tumor size was measured in 3 to 4 weeks after the injection and, when a diameter of the tumor reached 0.8 cm, microPET images were captured before treatment. […]

[3] = reported by the Weihong Tang group, University of Florida; cited from earlier work
Mv4-11 cell line = experiment: MTT assay to Mv4-11 cell lines; format: cell-based; settings: Mv4-11 cells, 72 hours incubation, absorbance at 490 nm, FIG. 6
Procedure: With regard to Mv4-11 cell line as a […] over-expressing a nucleoline protein, cell inhibition efficacy of citravin-(GLFG-MC-S-C6)-T3-AS1411 was verified in vitro by MTT assay. […] Mv4-11 cells (ATCC, IMDM+10% FBS) were seeded on a 96-well plate in a cell number of 2.5 to 5×10^5 cells/well, which was determined by a cell test method to determine an appropriate cell concentration, followed by growing for 1 day. After heating each of citravin-(GLFG-MC-S-C6)-T3-AS1411 and citravin-(GLFG-MC-S-C6)-T3-CRO at 95° C. for 5 minutes, the heated product was gradually cooled at room temperature and directly treated on each well at different concentrations. After incubating the treated A549 cells in 5% CO2 incubator for 72 hours, the incubated product was treated with 20 μL of a reagent solution for MTT assay (Cell Proliferation kit II, Roche) and incubated for different periods of time (10 min, 30 min, 1 hr). Thereafter, the final product was subjected to measurement of absorbance at 490 nm by an ELISA reader (FIG. 6).

A549 cell line = experiment: MTT assay to A549 cell lines; format: cell-based; settings: A549 cells, 72 hours incubation, FIG. 17 and FIG. 18
Procedure: With regard to A549 cell line as a lung cancer cell line over-expressing a nucleoline protein, cell inhibition efficacy of MMAE-(PAB-Cit-Val-MC-S-C6)-T3-AS1411 was verified in vitro by MTT assay. […] A549 cells (ATCC, IMDM+10% FBS) were seeded on a 96-well plate in a cell number of 2.5 to 5×10^5 cells/well, which was determined by a cell test method to determine an appropriate cell concentration, followed by growing for 1 day. After heating each of MMAE-(PAB-Cit-Val-MC-S-C6)-T3-AS1411 and MMAE-(PAB-Cit-Val-MC-S-C6)-T3-CRO at 95° C. for 5 minutes, the heated product was gradually cooled at room temperature and directly treated on each well at different concentrations. […] Thereafter, the final product was subjected to measurement of absorbance at 490 nm by an ELISA reader (FIG. 5).
With regard to A549 cell line as a lung cancer cell line over-expressing a nucleoline protein, cell inhibition efficacies of MMAE-(PAB-Cit-Val-MC-S-C6)-T3-AS1411, 12 or 13-(MMAE-PAB-Cit-Val-MC-S-C6)-AS1411 and 12,13-(MMAE-PAB-Cit-Val-MC-S-C6)2-AS1411 were verified in vitro by MTT assay. […] A549 cells (ATCC, IMDM+10% FBS) were seeded on a 96-well plate in a cell number of 2.5 to 5×10^5 cells/well, which was determined by a cell test method to determine an appropriate cell concentration, followed by growing for 1 day. […]

Compound: CC[C@H](C)[C@@H]([C@@H](CC(=O)N1CCC[C@H]1[C@H](OC)[C@@H](C)C(=O)N[C@H](C)[C@@H](O)c1ccccc1)OC)N(C)C(=O)[C@@H](NC(=O)[C@@H](NC)C(C)C)C(C)C [MMAE, monomethyl auristatin E, reference compound] (H-[NMeV]V[Dil][Dolaproine]-X1)
- FDG intake in the tumor from PET images, after vs before treatment [1]: FDG intake in the tumor was increased even after treatment
- FDG intake in the tumor from PET images, after vs before treatment [2]: FDG intake in the tumor was increased even after treatment

Compound: COc1cccc2c1C(=O)c1c(O)c3c(c(O)c1C2=O)C[C@@](O)(C(=O)CO)C[C@@H]3O[C@H]1C[C@H](N)[C@H](O)[C@H](C)O1 [doxorubicin]
- cytotoxic effects [3]: 20%

Compound: citravin-(Gly-Leu-Phe-Gly (SEQ ID NO: 8))-Mal-S-C6-tttggtggtggtggttgtggtggtggtgg [citravin-(GLFG-MC-S-C6)-T3-AS1411]
- cell inhibition efficacy (cell viability and cell proliferation) by MTT assay, compared with citravin (Mv4-11 cell line): almost the same efficacy as citravin
- FDG intake in the tumor from PET images, after vs before treatment [2]: a decrease in FDG intake in the tumor is observed

Compound: ggtggtggtggu (SEQ ID NO: 4)[5-N-(6-(3-monomethyl auristatin-p-aminobenzoyloxycarbonyl-citrulline-valine-Mal-thiopropanoyl)-aminohexyl)-3-acrylamido]u[5-N-(6-(3-monomethyl auristatin-p-aminobenzoyloxycarbonyl-citrulline-valine-Mal-thiopropanoyl)-aminohexyl)-3-acrylamido]gtggtggtggtgg (DNA GGTGGTGGTGGU; two MMAE-linker conjugates at positions 12,13, chemistry not fully specified) [12,13-(MMAE-PAB-Cit-Val-MC-S-C6)2-AS1411]
- cell inhibition efficacy by MTT assay, comparison between MMAE-linker-aptamer conjugates (A549 cell line): superior efficacy over of MMAE-(PAB-Cit-Val-MC-S-C6)-T3-AS1411
